Source: patent US10105384B2, “Nucleic acids targeting TCTP for use in the treatment of chemo- or hormone-resistant cancers” (INSTITUT NATIONAL DE LA SANTE ET DE LA RECHERCHE MEDICALE …, priority 2010, dated 2018)
d = 2'-deoxy (DNA); r = 2'-OH (RNA)

Assays:
LNCaP-Hsp27 cells = assay: Crystal violet cell growth assay, LNCaP-Hsp27 cells; format: cell-based, human
Procedure: (§1) In brief, cells were seeded in each well of 12-well microtiter plates (30 000 to 50 000 cells per well) and allowed to attach overnight. To study the effect of TCTP downregulation on apoptosis induced by docetaxel, PC-3 cells were transiently transfected the day after seeding with 5 nM of TCTP siRNA for 48 h or 100 nM of TCTP ASO for 72 h. Cells were then treated with 50 nM of docetaxel and MTT assays were performed after 24 h. To assess the effect of TCTP downregulation on Hsp27 cytoprotection, LNCaP-Mock and -Hsp27 cells were transiently transfected the day after seeding with 5 nM of TCTP siRNA for 48 h. The down- or upregulation of TCTP effect on LNCaP and C4-2 cell viability was realized after transient transfections with 100 nM of TCTP ASO or 0.02 μg/μl of pDEST-TCTP for 72 h and 48 h respectively. Cells were then treated with 1 nM of docetaxel in serum-free media (mimics androgen withdrawal in vitro) and crystal violet assays were performed the day after. Each assay was performed in triplicate.
To study the functional role of TCTP in CRPC, siRNA-induced inhibition of TCTP expression was used to determine whether the reduction of TCTP expression affects LNCaP-Mock and -Hsp27 cell growth after combined androgen withdrawal and docetaxel-chemotherapy treatment in vitro.
In order to study consequences of TCTP inhibition on cell survival after combined androgen withdrawal and docetaxel-chemotherapy treatment, cell viability of LNCaP-Mock and -Hsp27 was determined using crystal violet dye after 24 h treatment with 1 nM of docetaxel in serum-free media (mimics androgen withdrawal in vitro). […] After TCTP siRNA plus docetaxel in serum-free medium treatment (mimics androgen withdrawal in vitro), we found an 80% (**, P≤0.01) reduction in LNCaP-Hsp27 cell growth rate versus a 50% (**, P≤0.01) reduction in LNCaP-Mock compared to control.

LNCaP-Mock cells = assay: Crystal violet cell growth assay, LNCaP-Mock cells; format: cell-based, human
Procedure: as §1
In order to study consequences of TCTP inhibition on cell survival after combined androgen withdrawal and docetaxel-chemotherapy treatment, cell viability of LNCaP-Mock and -Hsp27 was determined using crystal violet dye after 24 h treatment with 1 nM of docetaxel in serum-free media (mimics androgen withdrawal in vitro). […]

C4-2 cells = assay: Crystal violet cell growth assay, C4-2 cells; format: cell-based, human
Procedure: as §1
Finally, in order to assess if TCTP ASO has the same effect on prostatic cancer cell lines expressing the androgen receptor (AR), crystal violet dye was used to examin LNCaP and C4-2 cell growth. LNCaP and C4-2 were treated with 100 nM TCTP or control ASO (FIGS. 15 A and B) for 2 days. Then, LNCaP and C4-2 cells were incubated with 1 nM of docetaxel in serum-free media.

PC-3 tumors = assay: PC-3 tumor growth in vivo in athymic nude mice
Procedure: Approximately 3.10^6 PC-3 cells and 10.10^6 LNCaP cells were inoculated subcutaneously with 0.1 mL of Dulbecco's Modified Eagle's Medium (Invitrogen) supplemented with 10% FCS for PC-3 or with 0.1 mL of Matrigel (BD Biosciences Discovery Labware) for LNCaP in the flank region of 4-week-old male athymic nude mice (Charles River, L'Arbresle, France) via a 23-gauge needle. When PC-3 tumors reached 50 mm^3, usually 3 to 4 weeks after injection, mice were randomly selected for treatment with TCTP ASO alone, scrambled ASO alone, TCTP ASO plus docetaxel or scrambled ASO plus docetaxel. Mice bearing LNCaP tumors between 200 and 300 mm^3 in volume were castrated via scrotal approach and randomly assigned to a treatment arm. Mice were treated beginning 1 week after castration with TCTP ASO or control ASO alone and serum PSA measurements were done weekly. For both experiments, each experimental group consisted in 10 mice and the tumor volume measurements were performed once weekly and calculated by the formula length×width×depth×0.5236 (Gleave et al., 1999, Clin Cancer Res 5:2891-8). After randomization, 10 mg/kg TCTP or scrambled ASO was injected intraperitoneally (i.p) once daily for 60 days for ASO monotherapy groups and 90 days for the ASO plus docetaxel groups. A total of 35 mg/kg docetaxel was administrated i.p. three times per week from days 7 to 14. Tumor volume measurements were performed once weekly and calculated by the formula length×width×depth×0.5236 (20). Data points were expressed as average tumor volume levels +/−standard error (SE). All animal procedures were performed in accordance with protocols approved by French laws and the European directives and with appropriate institutional certification.
We next evaluated the effects of TCTP ASO treatment on the growth of PC-3 tumors in vivo (FIG. 8). Male nude mice bearing PC-3 tumors (50 mm^3) were randomly selected for TCTP ASO versus scrambled ASO and 10 mg/kg ASO were administrated once daily by i.p. injection for […]. From days 7 to 14, 30 mg/kg of docetaxel was administrated i.p. 3 days in the week. Mean tumor volume was similar in all groups before therapy.
TCTP inhibition was evaluated in nude mice xenografted with the PC3 CRPC cell line. The animals were treated in an everyday basis and for a period of two months by peritoneal injection of ASO or control TCTP once their tumor volume was 200-300 mm^3. In order to evaluate the additive anticancer activity of ASO TCTP, mice were treated with docetaxel (33 mg/kg) by peritoneal injection three times per week for one week prior to ASO or control TCTP injections. For all experiments, the average tumor volume was measured once a week.

[1] = siRNA 5 nM alone, compared with control
[2] = siRNA plus 1 nM docetaxel in serum-free medium, 24 h

| Substance | cytoprotection to androgen withdrawal and docetaxel conferred by Hsp27 overexpression (LNCaP-Hsp27 cells; siRNA 5 nM) | reduction in LNCaP-Hsp27 cell growth rate (LNCaP-Hsp27 cells; [1]) [%] | reduction in LNCaP-Hsp27 cell growth rate (LNCaP-Hsp27 cells; [2]) [%] | reduction in LNCaP-Mock cell growth rate (LNCaP-Mock cells; [1]) [%] | reduction in LNCaP-Mock cell growth rate (LNCaP-Mock cells; [2]) [%] | C4-2 cell growth (C4-2 cells; 100 nM ASO for 2 days) | sensitivity to docetaxel and androgen withdrawal (C4-2 cells; C4-2, 100 nM ASO 2 days then 1 nM docetaxel in serum-free media) | tumor volume (PC-3 tumors; PC3 xenografted nude mice, 10th week of treatment) [mm^3] | tumor volume maintained (PC-3 tumors; PC3 xenografted nude mice, docetaxel (33 mg/kg) followed by ASO TCTP) [mm^3] | reduction of mean PC-3 tumor volume (PC-3 tumors; TCTP ASO plus docetaxel vs scrambled control, 13 weeks after initiation of treatment) [%] | harvested tumors smaller in appearance (PC-3 tumors; after two weeks of i.p. treatment) [%] | general toxicity (animal behavior, body weight) (PC-3 tumors; mice bearing PC-3 tumors, body weight t0 vs tf) | reduction of PC-3 tumor volume (PC-3 tumors; monotherapy 10 mg/kg i.p. once daily, days 56 to 70, vs scrambled control) [%] | cleaved caspase-3 fragments in harvested PC-3 tumors (PC-3 tumors; western blotting, i.p. delivery) |
| --- | --- | --- | --- | --- | --- | --- | --- | --- | --- | --- | --- | --- | --- | --- |
| 5′-AACCCGUCCGCGAUCUCCCdGdG-3′ (AACCCGUCCGCGAUCUCCCGG; siRNA; sugars from the 5' end r19 d2, backbone not given here) [TCTP siRNA, from Qiagen] | reversed the cytoprotection | 50 | 80 | 40 | 50 | – | – | – | – | – | – | – | – | – |
| 5′-ACCAATGAGCGAGTCATCAA-3′ (phosphorothioate backbone, further chemistry not given here) [ASO10] | – | – | – | – | – | considerably decrease | enhance treatments (docetaxel and androgen withdrawal) sensitivity | 500 | 100 | < 70 | 50 | did not cause general toxicity | 50 | presence of cleaved caspase-3 fragments |
